Values after ≈ are worked out from the molar mass of the structure shown.
How the values were obtained:
[1] = Solubility (physico-chemical properties)
[2] = test system: Pseudomonas aeruginosa SANK 70579; experiment: Growth inhibition test of derivatives; type: cell-based
[3] = test system: Escherichia coli NIHJ JC-2; experiment: MIC by agar dilution method, Mueller-Hinton agar; type: cell-based
Experimental: (§1) The minimal inhibitory concentrations (MIC) of mureidomycins E and F against various Gram-positive and Gram-negative bacteria were determined by the agar dilution method, using a Mueller-Hinton agar medium (produced by Difco).

[4] = test system: Proteus mirabilis SANK 70461; experiment: MIC by agar dilution method, Mueller-Hinton agar; type: cell-based
Experimental: as §1

[5] = test system: Pseudomonas aeruginosa ATCC 13388; experiment: MIC by agar dilution method, Mueller-Hinton agar; type: cell-based
Experimental: as §1

[6] = test system: Pseudomonas aeruginosa NCTC 10490; experiment: MIC by agar dilution method, Mueller-Hinton agar; type: cell-based
Experimental: as §1

[7] = test system: Pseudomonas aeruginosa NRRL B1000; experiment: MIC by agar dilution method, Mueller-Hinton agar; type: cell-based
Experimental: as §1

[8] = test system: Pseudomonas aeruginosa SANK 70579; experiment: MIC by agar dilution method, Mueller-Hinton agar; type: cell-based
Experimental: as §1

[9] = test system: Pseudomonas aeruginosa SANK 70970; experiment: MIC by agar dilution method, Mueller-Hinton agar; type: cell-based
Experimental: as §1

[10] = test system: Pseudomonas aeruginosa SANK 75175; experiment: MIC by agar dilution method, Mueller-Hinton agar; type: cell-based
Experimental: as §1

[11] = test system: Pseudomonas aeruginosa SANK 75775; experiment: MIC by agar dilution method, Mueller-Hinton agar; type: cell-based
Experimental: as §1

[12] = test system: Serratia marcescens SANK 73060; experiment: MIC by agar dilution method, Mueller-Hinton agar; type: cell-based
Experimental: as §1

[13] = test system: Staphylococcus aureus FDA 209P JC-1; experiment: MIC by agar dilution method, Mueller-Hinton agar; type: cell-based
Experimental: as §1

[14] = Toxicity in mice after intravenous administration; type: in vivo; details: intravenously 400 mg/kg

Row | Molecule | Solubility in acetone [1] | Solubility in benzene [1] | Solubility in chloroform [1] | Solubility in ethyl acetate [1] | Solubility in methanol [1] | Solubility in water [1] | inhibition of growth [2] | MIC [3] [µg/mL] | MIC [4] [µg/mL] | MIC [5] [µg/mL] | MIC [6] [µg/mL] | MIC [7] [µg/mL] | MIC [8] [µg/mL] | MIC [9] [µg/mL] | MIC [10] [µg/mL] | MIC [11] [µg/mL] | MIC [12] [µg/mL] | MIC [13] [µg/mL] | toxicity [14]
1 | CSCC[C@H](NC(=O)NC(Cc1cccc(O)c1)C(=O)O)C(=O)N[C@@H](C(=O)NC=C1CC(O)C(n2ccc(=O)[nH]c2=O)O1)C(C)N(C)C(=O)[C@@H](N)Cc1cccc(O)c1 (some centres unmarked) [Mureidomycin A, reference compound] | slightly soluble | insoluble | insoluble | insoluble | Soluble | Soluble | – | – | – | – | – | – | – | – | – | – | – | – | –
2 | methylmureidomycin E | – | – | – | – | – | soluble | inhibit the growth | – | – | – | – | – | – | – | – | – | – | – | –
3 | phenylmureidomycin E | – | – | – | – | – | soluble | inhibit the growth | – | – | – | – | – | – | – | – | – | – | – | –
4 | phenylmureidomycin F | – | – | – | – | – | soluble | inhibit the growth | – | – | – | – | – | – | – | – | – | – | – | –
5 | methylmureidomycin F | – | – | – | – | – | soluble | inhibit the growth | – | – | – | – | – | – | – | – | – | – | – | –
6 | CSCC[C@@H](NC(=O)N[C@H](Cc1cccc(O)c1)C(=O)O)C(=O)N[C@H](C(=O)N/C=C1/C[C@H](O)[C@@H](n2ccc(=O)[nH]c2=O)O1)[C@H](C)N(C)C(=O)[C@H]1Cc2cccc(O)c2CN1 [Mureidomycin E] | slightly soluble | insoluble | insoluble | insoluble | Soluble | Soluble | – | > 200 | > 200 | 25 (≈ 29.3 µM) | < 0.4 | 25 (≈ 29.3 µM) | < 0.4 | 25 (≈ 29.3 µM) | 25 (≈ 29.3 µM) | 6.25 (≈ 7.33 µM) | > 200 | > 200 | No toxicity was observed
7 | CSCC[C@@H](NC(=O)N[C@@H](Cc1cccc(O)c1)C(=O)O)C(=O)N[C@@H](C(=O)N/C=C1/C[C@@H](O)[C@H](n2ccc(=O)[nH]c2=O)O1)[C@@H](C)N(C)C(=O)[C@H]1Cc2cc(O)ccc2CN1 [Mureidomycin F] | slightly soluble | insoluble | insoluble | insoluble | Soluble | Soluble | – | > 200 | > 200 | 3.13 (≈ 3.67 µM) | 0.8 (≈ 0.938 µM) | 3.13 (≈ 3.67 µM) | 1.56 (≈ 1.83 µM) | 100 (≈ 117 µM) | 50 (≈ 58.6 µM) | 25 (≈ 29.3 µM) | > 200 | > 200 | No toxicity was observed
